Measurements reported in US20130310362A1, “FUSED PYRIMIDINES” (BAYER PHARMA AKTIEGESELLSCHAFT, priority 2009, published 2013).

What was measured:
[1] = molecular target: T1, human recombinant kinase full-length Akt2 (Homo sapiens, UniProt P31751); test: Akt2 kinase assay (TR-FRET); assay type: biochemical; settings: Akt2 activated by PDK1, 10 μM ATP, 1 μM peptide substrate, 60 min at 22° C.; read-out: IC50 Akt2 (Biological Assay 2.0)
T1 construct: human recombinant kinase full-length Akt2; His; purchased Invitrogen PV 3975; host or cells: insect cells
T1 sequence (P31751 whole entry): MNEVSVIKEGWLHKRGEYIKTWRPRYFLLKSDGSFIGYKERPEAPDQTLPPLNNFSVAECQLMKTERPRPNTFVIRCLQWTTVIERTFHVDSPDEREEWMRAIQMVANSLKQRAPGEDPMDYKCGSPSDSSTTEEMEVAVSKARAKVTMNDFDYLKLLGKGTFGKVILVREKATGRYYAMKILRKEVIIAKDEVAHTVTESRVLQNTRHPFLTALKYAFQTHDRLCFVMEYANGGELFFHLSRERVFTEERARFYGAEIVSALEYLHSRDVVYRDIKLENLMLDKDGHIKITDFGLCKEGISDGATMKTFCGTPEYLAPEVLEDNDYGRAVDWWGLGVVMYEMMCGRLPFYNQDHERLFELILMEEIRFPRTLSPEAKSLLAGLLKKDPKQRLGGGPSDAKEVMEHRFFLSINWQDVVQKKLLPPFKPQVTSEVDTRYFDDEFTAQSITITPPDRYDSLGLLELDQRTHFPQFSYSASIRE
Source text: Biological Assay 2.0: Akt2 Kinase Assay
Akt2 inhibitory activity of compounds of the present invention was quantified employing the Akt2 TR-FRET assay as described in the following paragraphs.
(§1) His-tagged human recombinant kinase full-length Akt2 expressed in insect cells and activated by PDK1 was purchased form Invitrogen (part number PV 3975). As substrate for the kinase reaction the biotinylated peptide biotin-Ahx-KKLNRTLSFAEPG (C-terminus in amide form) was used which can be purchased e.g. from the company Biosynthan GmbH (Berlin-Buch, Germany). For the assay 50 nl of a 100 fold concentrated solution of the test compound in DMSO was pipetted into a black low volume 384 well microtiter plate (Greiner Bio-One, Frickenhausen, Germany), 2 μl of a solution of Akt2 in assay buffer [50 mM TRIS/HCl pH 7.5, 5 mM MgCl2, 1 mM dithiothreitol, 0.02% (v/v) Triton X-100 (Sigma)] were added and the mixture was incubated for 15 min at 22° C. to allow pre-binding of the test compounds to the enzyme before the start of the kinase reaction. Then the kinase reaction was started by the addition of 3 μl of a solution of adenosine-tri-phosphate (ATP, 16.7 μM=>final conc. in the 5 μl assay volume is 10 μM) and substrate (1.67 μM=>final conc. in the 5 μl assay volume is 1 μM) in assay buffer and the resulting mixture was incubated for a reaction time of 60 min at 22° C. The concentration of Akt2 in the assay was adjusted depending of the activity of the enzyme lot and was chosen appropriate to have the assay in the linear range, typical enzyme concentrations were in the range of about 0.2 ng/μl (final conc. in the 5 μl assay volume).
(§2) The reaction was stopped by the addition of 5 μl of a solution of HTRF detection reagents (200 nM streptavidine-XL665 [Cisbio] and 1.5 nM anti-phosho-Serine antibody [Millipore, cat. #35-001] and 0.75 nM LANCE Eu-W 1024 labeled anti-mouse IgG antibody [Perkin Elmer]) in an aqueous EDTA-solution (100 mM EDTA, 0.1% (w/v) bovine serum albumin in 50 mM HEPES/NaOH pH 7.5). The resulting mixture was incubated 1 h at 22° C. to allow the binding of the biotinylated phosphorylated peptide to the streptavidine-XL665 and the antibodies. Subsequently the amount of phosphorylated substrate was evaluated by measurement of the resonance energy transfer from the anti-mouse-IgG-Eu-Chelate to the streptavidine-XL665. Therefore, the fluorescence emissions at 620 nm and 665 nm after excitation at 350 nm was measured in a TR-FRET reader, e.g. a Rubystar (BMG Labtechnologies, Offenburg, Germany) or a Viewlux (Perkin-Elmer). The ratio of the emissions at 665 nm and at […] was taken as the measure for the amount of phosphorylated substrate. The data were normalised (enzyme reaction without inhibitor=0% inhibition, all other assay components but no enzyme=100% inhibition).

[2] = test system: Akt phosphorylation (Ser473) in MCF7 cells; test: Cellular PI3K/Akt pathway assay (Phospho-Akt1 (Ser473) sandwich ELISA); assay type: cell-based; settings: Homo sapiens, β-Heregulin stimulated, 48 h incubation, read-out: IC50 p-Akt (Biological Assay 5.0)
Experimental: Biological Assay 5.0: Cellular PI3K/Akt Pathway Assay
In order to study the cellular activity of the compounds according to the present invention, an Enzyme Linked Immunosorbent Assay (ELISA)-based assay may be used to investigate the inhibitory effect on Akt phosphorylation.
The ELISA Kit detects endogenous levels of phosphorylated Akt protein. […] After incubation with cell lysates, the coated antibody captures the phosphorylated Akt protein. […] The magnitude of optical density for this developed color is proportional to the quantity of phosphorylated Akt protein. MCF7 cells (ATCC HTB-22) are seeded into 96 well fate bottom plates at a density of 10000 cells/well. 24 hours after seeding, the cells are serum starved using low-serum medium (IMEM media including 0.1% charcoal treated FCS (FCS: fetal calf serum)). After 24 hours 1 μl each of the compound dilutions (test compounds were dissolved as 10 mM solutions in dimethylsulfoxide (DMSO) and subsequently diluted) are added into each well of the 96 well plates and incubated for 48 h at 37° C. in a humidified athmosphere containing 5% CO2. To stimulate Akt phosphorylation, β-Heregulin (20 ng/mL β-HRG) is added in parallel to the compounds. Wells containing unstimulated control cells (no β-Heregulin stimulation) are incubated with or without the diluted compound. Wells containing untreated control cells (no compound) are filled with medium containing 0.5% v:v DMSO and are or are not stimulated with 3-Heregulin.
Cells are harvested and lysed with brief sonification in 1× cell lysis buffer (20 mM Tris (pH7.5), 150 mM NaCl, 1 mM ethylene diaminetetraacetate (EDTA), 1 mM ethylene glycolbis(2-aminoethyl)-N,N,N′,N′-tetraacetic acid (EGTA), 1 vol % Triton X-100, 2.5 mM sodium pyrophosphate, 1 mM β-glycerolphosphate, 1 mM Na3VO4, 1 μg/mL leupeptin). The lysate is centrifuged for 10 min. at 4° C. and the supernatant is transferred to a new tube. […] The absorbance is measured at λ=450 nm (Wallac Victor2; Perkin Elmer, USA) within 30 min. after adding the STOP solution. […]

[3] = molecular target: T2, human recombinant kinase full-length Akt1 (Homo sapiens, UniProt P31749); test: Akt1 kinase assay (TR-FRET); assay type: biochemical; settings: 10 μM ATP, 1 μM peptide substrate, 60 min at 22° C.; read-out: IC50 Akt1 Biological Assay 1.0)
T2 construct: human recombinant kinase full-length Akt1; His; purchased Invitrogen PV 3599; host or cells: insect cells
T2 sequence (P31749 whole entry): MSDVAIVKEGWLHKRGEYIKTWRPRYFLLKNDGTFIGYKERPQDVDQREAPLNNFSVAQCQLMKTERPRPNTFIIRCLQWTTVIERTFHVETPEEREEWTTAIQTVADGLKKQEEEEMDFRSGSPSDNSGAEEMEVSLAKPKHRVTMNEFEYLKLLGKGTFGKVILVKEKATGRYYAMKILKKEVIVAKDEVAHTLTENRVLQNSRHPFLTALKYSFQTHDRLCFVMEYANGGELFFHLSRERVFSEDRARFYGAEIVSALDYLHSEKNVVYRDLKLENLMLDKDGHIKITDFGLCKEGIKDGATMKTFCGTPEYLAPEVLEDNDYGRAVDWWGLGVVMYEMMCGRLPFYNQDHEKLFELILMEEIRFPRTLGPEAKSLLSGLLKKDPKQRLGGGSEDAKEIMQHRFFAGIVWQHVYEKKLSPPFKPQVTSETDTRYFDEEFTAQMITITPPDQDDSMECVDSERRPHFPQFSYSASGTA
Source text: Biological Assay 1.0: Akt1 Kinase Assay
Akt1 inhibitory activity of compounds of the present invention may be quantified employing the Akt1 TR-FRET assay as described in the following paragraphs.
His-tagged human recombinant kinase full-length Akt1 expressed in insect cells was purchased form Invitrogen (part number PV 3599). As substrate for the kinase reaction the biotinylated peptide biotin-Ahx-KKLNRTLSFAEPG (C-terminus in amide form) was used which can be purchased e.g. from the company Biosynthan GmbH (Berlin-Buch, Germany).
as §1, with “For” for “His-tagged human recombinant kinase full-length Akt2 expressed in insect cells and activated by PDK1 was purchased form Invitrogen (part number PV 3975). As substrate for the kinase reaction the biotinylated peptide biotin-Ahx-KKLNRTLSFAEPG (C-terminus in amide form) was used which can be purchased e.g. from the company Biosynthan GmbH (Berlin-Buch, Germany). For”, “Akt1” for “Akt2”, “0.05” for “0.2”
as §2, with “HTRF” for “TR-FRET”, “inhibition). Normally test compound were tested on the same microtiter plate at 10 different concentrations in the range of 20 μM to 1 nM (20 μM, 6.7 μM, 2.2 μM, 0.74 μM, 0.25 μM, 82 nM, 27 nM, 9.2 nM, 3.1 nM and 1 nM, dilution series prepared before the assay at the level of the 100 fold conc. stock solutions by serial 1:3 dilutions) in duplicate values for each concentration and […] were calculated by a 4 parameter fit using an inhouse software.” for “inhibition).”

Structure (SMILES) | IC50 [1] [nM] | IC50 [2] [nM] | IC50 [3] [nM]
Cc1nc(-c2ccc(CN3CCC(c4n[nH]c(-c5ccccn5)n4)CC3)cc2)c(-c2ccccc2)c2nccn12 [Example 1.0, 5-methyl-8-phenyl-7-{4-[4-(5-pyridin-2-yl-1H-[1,2,4]triazol-3-yl)-piperidin-1-ylmethyl]-phenyl}-imidazo[1,2-c]pyrimidine] | 53 | < 50 | 4
c1ccc(-c2c(-c3ccc(CN4CCC(c5n[nH]c(-c6ccccn6)n5)CC4)cc3)ncn3ccnc23)cc1 [Example 2.0, 8-phenyl-7-{4-[4-(5-pyridin-2-yl-1H-[1,2,4]triazol-3-yl)-piperidin-1-ylmethyl]-phenyl}-imidazo[1,2-c]pyrimidine] | 42 | 8 | 8
